For one experiment, the system named is VCAM-1. The experiment can be described thus: Collagen antibody-induced arthritis, hind limb immunohistochemistry for VCAM-1. The class given is in vivo, mouse. Particulars: CAIA mice; Day 14 hind limbs. Here is the method:
Collagen antibody-induced arthritis. Arthritis was induced in female Balb/c mice (6-8 week-old) as previously described with a commercially obtained cocktail of 5 monoclonal antibodies to type II collagen at 2 mg/mouse (Chondrex, Inc. Redmond, WA) followed by LPS (50 μg/mouse) with or without BT2 (3 or 30 mg/kg mouse) in DMSO vehicle was administered i.p. on Day 3. Hind footpad thickness was measured on Day 9 using digital calipers. Mice were sacrificed on Day 14 and microCT scanning of hind limbs was performed.
Immmunohistochemical staining of hind limbs for VCAM-1 and ICAM-1 and analysis. Formalin-fixed, paraffin embedded of hind limbs were sectioned (5 μm). Dako EnVision Rabbit Kit (cat. K4011, Dako) was used for immmunohistochemical staining for VCAM-1 and ICAM-1. […] Integrated optical density (IOD) of positive staining in ankle joint (tibia and talus) articular cartilage was assessed for VCAM-1 and ICAM-1 using Image-Pro Plus software (Cybernetics, Bethesda, MD, USA). Area (μm^2) of ankle joint articular cartilage was measured using Image-Pro Plus software. Total cell number and positive staining cell number in ankle joint articular cartilage were counted manually using Image-Pro Plus software. […]

Another experiment relates to CD31. Description: Immunohistochemical staining of rat retina, CD31. Type of experiment: in vivo. Particulars: lasered rat eyes 21 days after injury. An excerpt:
Rat choroidal laser injury model. Male Brown Norway pigmented rats (8-14 week-old) were anesthetized by an intramuscular injection of Rompun® (xylazine)/Imalgene® (ketamine). Pupils were dilated by instillation of one drop of 0.5% tropicamide before laser burn. Six burns were created in both eyes on Day 0 by applying 170 mW of 532 nm laser light (Viridis laser, Quantel, France) on 75 μm spots around the optic nerve, between the main retinal vessel branches, for 0.1s, through the slit lamp and contact lens. Production of a bubble at the time of laser application confirmed the rupture of Bruch's membrane. […] After anaesthesia, 10% sodium fluorescein (250 μl/100 g body weight) was injected subcutaneously, and ocular fluorescence was recorded 10 min after dye injection. Fluorescein leakage was evaluated on Days 14 and 21 in the angiograms by two examiners masked to the study groups and graded for fluorescein intensity as follows: score 0: no leakage; 1: slightly stained; 2: moderately stained; 3: strongly stained.
Immunohistochemical staining of rat retina. […] IOD of positive staining (red chromogen) was assessed for CD31, VEGF-A165, pERK, FosB and VCAM-1 using Image-Pro Plus software (Cybernetics, Bethesda, MD). IOD in IPL and INL was quantified for CD31; OPL to OS for VEGF-A165; INL to ONL for pERK; GCL to OS for FosB; OLM for VCAM-1, using Image-Pro Plus. […]

With `CCOC(=O)Nc1ccc2c(c1)C(=O)N(CC)c1ccccc1O2` [BT2, (10-ethyl-11-oxo-10,11-dihydro-dibenzo[b,f][1,4]oxazepin-2-yl)-carbamic acid ethyl ester], the “VCAM-1 expression in bone” value in the experiment with VCAM-1 was “inhibit VCAM-1 and ICAM-1 expression”. Moreover, the “inducible CD31 staining in the IPL and INL” value in the experiment with CD31 is listed as “inhibited inducible CD31 staining”.

For the origin of these results see patent US20260102407A1, “TREATMENT METHODS” (priority 2020, published 2026).
